Measured values reported in patent US20260325561A1, “4'-SUBSTITUTED NUCLEOSIDES AND NUCLEOTIDES AS ANTIVIRAL AGENTS” (THE SCRIPPS RESEARCH INSTITUTE, priority 2023, published 2026).

Key:
[1] = in vitro; settings: human, hepg2 cells
[2] = test system: DENV-2; experiment: microbe, parasite or virus in culture; format: cell-based, DENV-2 16681; settings: Dengue virus, DENV2, HepG2, 24 h, read-out: DENV-2 / HepG2 EC50
[3] = test system: HRV 14; experiment: microbe, parasite or virus in culture; format: cell-based, Human Rhinovirus 14 strain 1059; settings: Rhinovirus B, H1-HeLa, 48 h, read-out: HRV / H1 HeLa B 14 EC50
[4] = test system: HRV 16; experiment: microbe, parasite or virus in culture; format: cell-based, Human Rhinovirus 16 strain 11757; settings: Rhinovirus A, H1-HeLa, 48 h, read-out: HRV / H1 HeLa A16 EC50
[5] = in vitro; settings: human, hela-ace2 cells
[6] = test system: RSV A2; experiment: microbe, parasite or virus in culture; format: cell-based; settings: human respiratory syncytial virus, HEp-2, 72 h, read-out: RSV A2 / Hep2 EC50
[7] = in vitro; settings: human, h1 hela cells
[8] = in vitro; settings: human, hep2 cells
[9] = test system: SARS-CoV-2; experiment: microbe, parasite or virus in culture; format: cell-based, SARS-CoV-2 strain USA-WA1/2020; settings: Severe acute respiratory syndrome coronavirus 2, HeLa-ACE2, 24 h, read-out: SARS-CoV-2 / HeLa-ACE2 EC50

Row | SMILES | CC50 at 72 h [1] [µM] | EC50 [2] [µM] | EC50 [3] [µM] | EC50 [4] [µM] | CC50 at 24 h [5] [µM] | EC50 [6] [µM] | CC50 [7] [µM] | CC50 [8] [µM] | EC50 [9] [µM]
1 | CNc1nc(N)nc2c1ccn2[C@@H]1O[C@](F)(COC(=O)c2ccccc2)[C@@H](O)[C@H]1O [Example 56, ((2S,3S,4R,5R)-5-(2-amino-4-(methylamino)-7H-pyrrolo[2,3-d]pyrimidin-7-yl)-2-fluoro-3,4-dihydroxytetrahydrofuran-2-yl)methyl benzoate] | > 99 | > 10 | > 10 | > 10 | > 99 | > 10 | > 99 | > 99 | > 10
2 | Nc1nc(Cl)c2ccn([C@@H]3O[C@](F)(CO)[C@@H](O)[C@H]3O)c2n1 [Example 27, (2S,3S,4R,5R)-5-(2-amino-4-chloro-7H-pyrrolo[2,3-d]pyrimidin-7-yl)-2-fluoro-2-(hydroxymethyl)tetrahydrofuran-3,4-diol] | 10 to 99 | > 10 | > 10 | > 10 | 10 to 99 | > 10 | 10 to 99 | 10 to 99 | > 10
3 | Cc1nc(Cl)c2ccn([C@@H]3O[C@](F)(CO)[C@@H](O)[C@H]3O)c2n1 [Example 29, (2S,3S,4R,5R)-5-(4-chloro-2-methyl-7H-pyrrolo[2,3-d]pyrimidin-7-yl)-2-fluoro-2-(hydroxymethyl)tetrahydrofuran-3,4-diol] | > 99 | > 10 | > 10 | > 10 | > 99 | > 10 | > 99 |  | > 10
4 | CC(=O)O[C@H]1[C@H](n2ncc(=O)[nH]c2=O)O[C@](F)(COC(=O)c2ccccc2)[C@H]1OC(C)=O [Example 45, (2S,3S,4R,5R)-2-((benzoyloxy)methyl)-5-(3,5-dioxo-4,5-dihydro-1,2,4-triazin-2(3H)-yl)-2-fluorotetrahydrofuran-3,4-diyl diacetate] | > 99 | > 10 | > 10 | > 10 | > 99 | > 10 | > 99 | > 99 | > 10
5 | OC[C@@]1(F)O[C@@H](n2ccc3cncnc32)[C@H](O)[C@@H]1O [Example 23, (2S,3S,4R,5R)-2-fluoro-2-(hydroxymethyl)-5-(7H-pyrrolo[2,3-d]pyrimidin-7-yl)tetrahydrofuran-3,4-diol] | 1 to 10 | 0.1 to 1 | 1 to 10 | 1 to 10 | 1 to 10 | 1 to 10 | 10 to 99 | 10 to 99 | 1 to 10
6 | COc1ncnc2c1ccn2[C@@H]1O[C@](F)(CO)[C@@H](O)[C@H]1O [Example 41, (2S,3S,4R,5R)-2-fluoro-2-(hydroxymethyl)-5-(4-methoxy-7H-pyrrolo[2,3-d]pyrimidin-7-yl)tetrahydrofuran-3,4-diol] | 10 to 99 | > 10 | > 10 | > 10 | 10 to 99 | > 10 | 10 to 99 | 10 to 99 | > 10
7 | CC(C)OC(=O)[C@H](C)N[P@@](=O)(OC[C@@]1(F)O[C@@H](n2ccc3c(N)ncnc32)[C@H](O)[C@@H]1O)Oc1ccccc1 [Example 49, isopropyl ((R)-(((2S,3S,4R,5R)-5-(4-amino-7H-pyrrolo[2,3-d]pyrimidin-7-yl)-2-fluoro-3,4-dihydroxytetrahydrofuran-2-yl)methoxy)(phenoxy)phosphoryl)-L-alaninate] | > 99 | 1 to 10 | 1 to 10 | > 10 | > 99 |  | > 99 |  | > 10
